# Assay results: PubChem BioAssay (NCI)
#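 Tested at 5 concentrations; 48 h exposure; 96-well plates; endpoints linearly interpolated, else capped at highest concentration. TGI is the concentration that stops growth completely.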
# How the values were obtained:
# Experiment in all cases: inhibition of tumour cell growth, NCI panel, 48 h
# [1] = test system: 786-0 renal
# [2] = test system: A498 renal
# [3] = test system: A549 NSCLC
# [4] = test system: ACHN renal
# [5] = test system: CAKI-1 renal
# [6] = test system: CCRF-CEM leukemia
# [7] = test system: COLO 205 colon
# [8] = test system: DLD-1 colon
# [9] = test system: DMS 114 small cell lung
# [10] = test system: DMS 273 small cell lung
# [11] = test system: EKVX NSCLC
# [12] = test system: HCC-2998 colon
# [13] = test system: HCT-116 colon
# [14] = test system: HCT-15 colon
# [15] = test system: HL-60(TB) leukemia
# [16] = test system: HOP-62 NSCLC
# [17] = test system: HOP-92 NSCLC
# [18] = test system: HT29 colon
# [19] = test system: IGROV1 ovarian
# [20] = test system: K-562 leukemia
# [21] = test system: KM12 colon
# [22] = test system: KM20L2 colon
# [23] = test system: M14 melanoma
# [24] = test system: M19-MEL melanoma
# [25] = test system: MALME-3M melanoma
# [26] = test system: MOLT-4 leukemia
# [27] = test system: NCI-H226 lung
# [28] = test system: NCI-H23 lung
# [29] = test system: NCI-H522 lung
# [30] = test system: OVCAR-3 ovarian
# [31] = test system: OVCAR-4 ovarian
# [32] = test system: OVCAR-5 ovarian
# [33] = test system: OVCAR-8 ovarian
# [34] = test system: RPMI-8226 leukemia
# [35] = test system: RXF-631 renal
# [36] = test system: SF-268 CNS
# [37] = test system: SF-295 CNS
# [38] = test system: SF-539 CNS
# [39] = test system: SK-MEL-2 melanoma
# [40] = test system: SK-MEL-28 melanoma
# [41] = test system: SK-MEL-5 melanoma
# [42] = test system: SK-OV-3 ovarian
# [43] = test system: SN12C renal
# [44] = test system: SNB-19 CNS
# [45] = test system: SNB-75 CNS
# [46] = test system: SW-620 colon
# [47] = test system: TK-10 renal
# [48] = test system: U251 CNS
# [49] = test system: UACC-257 melanoma
# [50] = test system: UACC-62 melanoma
# [51] = test system: UO-31 renal
# [52] = test system: XF 498 CNS
# [53] = test system: LOX IMVI melanoma
# [54] = test system: LXFL 529 NSCLC
# [55] = test system: NCI-H460 lung
# [56] = test system: RXF 393 renal
# [57] = test system: SNB-78 CNS
smiles,measurement,setting,value
O=C1C2=C(c3ccccc31)C(c1ccccc1Cl)N1C(=O)CCSC1=N2 (stereo not drawn),TGI,[1],> 100 µM
same,TGI,[2],> 100 µM
same,TGI,[3],> 100 µM
same,TGI,[4],> 100 µM
same,TGI,[5],> 100 µM
same,TGI,[6],> 100 µM
same,TGI,[7],> 100 µM
same,TGI,[8],> 100 µM
same,TGI,[9],> 100 µM
same,TGI,[10],> 100 µM
same,TGI,[11],> 100 µM
same,TGI,[12],> 100 µM
same,TGI,[13],> 100 µM
same,TGI,[14],> 100 µM
same,TGI,[15],> 100 µM
same,TGI,[16],> 100 µM
same,TGI,[17],> 100 µM
same,TGI,[18],> 100 µM
same,TGI,[19],> 100 µM
same,TGI,[20],> 100 µM
same,TGI,[21],> 100 µM
same,TGI,[22],> 100 µM
same,TGI,[23],> 100 µM
same,TGI,[24],> 100 µM
same,TGI,[25],> 100 µM
same,TGI,[26],> 100 µM
same,TGI,[27],> 100 µM
same,TGI,[28],> 100 µM
same,TGI,[29],> 100 µM
same,TGI,[30],> 100 µM
same,TGI,[31],> 100 µM
same,TGI,[32],> 100 µM
same,TGI,[33],> 100 µM
same,TGI,[34],> 100 µM
same,TGI,[35],> 100 µM
same,TGI,[36],> 100 µM
same,TGI,[37],> 100 µM
same,TGI,[38],> 100 µM
same,TGI,[39],> 100 µM
same,TGI,[40],> 100 µM
same,TGI,[41],> 100 µM
same,TGI,[42],> 100 µM
same,TGI,[43],> 100 µM
same,TGI,[44],> 100 µM
same,TGI,[45],> 100 µM
same,TGI,[46],> 100 µM
same,TGI,[47],> 100 µM
same,TGI,[48],> 100 µM
same,TGI,[49],> 100 µM
same,TGI,[50],> 100 µM
same,TGI,[51],> 100 µM
same,TGI,[52],> 100 µM
CCOC(=O)c1ccc(N[C@@H]2c3cc4c(cc3C(C3=CC(=O)C(=O)C(OC)=C3)[C@H]3C(=O)OCC32)OCO4)cc1 (stereo partly drawn),TGI,[1],4.09 µM
same,TGI,[2],13 µM
same,TGI,[3],5.67 µM
same,TGI,[4],3.86 µM
same,TGI,[5],11.5 µM
same,TGI,[6],> 28.1 µM
same,TGI,[7],28.3 µM
same,TGI,[8],> 39.8 µM
same,TGI,[9],6.89 µM
same,TGI,[10],13.5 µM
same,TGI,[11],26.3 µM
same,TGI,[12],10.9 µM
same,TGI,[13],18.7 µM
same,TGI,[14],7.82 µM
same,TGI,[15],> 19.7 µM
same,TGI,[16],1.66 µM
same,TGI,[17],25 µM
same,TGI,[18],18.2 µM
same,TGI,[19],28.5 µM
same,TGI,[20],> 69.4 µM
same,TGI,[21],> 33.2 µM
same,TGI,[22],32.1 µM
same,TGI,[53],11.4 µM
same,TGI,[54],29.4 µM
same,TGI,[23],9.96 µM
same,TGI,[24],36.4 µM
same,TGI,[25],11.2 µM
same,TGI,[26],> 37.7 µM
same,TGI,[28],4.21 µM
same,TGI,[55],5.84 µM
same,TGI,[29],18.8 µM
same,TGI,[30],31.7 µM
same,TGI,[31],> 83 µM
same,TGI,[32],36.1 µM
same,TGI,[33],15.9 µM
same,TGI,[34],66.8 µM
same,TGI,[56],16.8 µM
same,TGI,[35],10 µM
same,TGI,[36],10.4 µM
same,TGI,[37],6.87 µM
same,TGI,[38],4.56 µM
same,TGI,[39],6.08 µM
same,TGI,[40],40.5 µM
same,TGI,[41],11.7 µM
same,TGI,[42],6.77 µM
same,TGI,[43],> 21.1 µM
same,TGI,[44],42 µM
same,TGI,[45],9.04 µM
same,TGI,[57],> 54.6 µM
same,TGI,[46],20.1 µM
same,TGI,[47],38.9 µM
same,TGI,[48],4.77 µM
same,TGI,[49],> 82.6 µM
same,TGI,[50],7.69 µM
same,TGI,[51],9.43 µM
same,TGI,[52],9.38 µM
